# Data from ChEMBL document CHEMBL1153342 (J Med Chem, 2009).
# Legend:
# [1] = Permeability from apical to basolateral side of human Caco-2 cells at 50 uM by LC/MS-MS analysis; format: ADME, cell-based; details: read-out: permeability
# [2] = Solubility at pH 7.4 after 48 hrs by HPLC; format: physicochemical; details: buffer
# [3] = Solubility at pH 2.0 after 48 hrs by HPLC; format: physicochemical; details: buffer
# [4] = Permeability from basolateral to apical side of human Caco-2 cells at 50 uM by LC/MS-MS analysis; format: ADME, cell-based; details: read-out: permeability
# [5] = Metabolic stability in human liver microsomes assessed as half life by HPLC; format: ADME, Microsome
# [6] = target: T1, Serine/threonine-protein kinase pim-2 (Homo sapiens, UniProt Q9P1W9); test: Inhibition of Pim2
# [7] = target: T2, Serine/threonine-protein kinase pim-1 (Homo sapiens, UniProt P11309); test: Inhibition of Pim1 after 15 mins by scintillation counting-based competition assay in presence of 100 uM [gamma33P]ATP
# [8] = target: T2, Serine/threonine-protein kinase pim-1; test: Inhibition of Pim1 in presence of 1 uM ATP
# [9] = target: Casein kinase II subunit alpha' (Homo sapiens) (UniProt P19784); test: Inhibition of CK2alpha2 at 10 uM
# [10] = target: Casein kinase II subunit alpha (Homo sapiens) (UniProt P68400); test: Inhibition of CK2alpha1 at 10 uM
# [11] = target: T1, Serine/threonine-protein kinase pim-2; test: Inhibition of Pim2 in presence of 1 uM ATP
structure (smiles),measurement,setting,value
CN1CCCN(c2cncc(-c3cccc(/C=C/C(=O)O)c3)n2)CC1,Papp A→B at 50 µM,[1],27.3 nm/s
same,solubility at 48 h,[2],> 2 mg/mL
same,solubility at 48 h,[3],> 2 mg/mL
same,Papp B→A at 50 µM,[4],30.1 nm/s
same,half-life,[5],2.65 h
O=C(O)/C=C/c1cccc(-c2cncc(N3CCCNCC3)n2)c1,IC50,[6],0.01 µM
O=C(O)c1ccc(-c2cnc3ccc(NCC4CC4)nn23)cc1,IC50,[7],0.12 µM
CN1CCCN(c2cccc(-c3cccc(/C=C/C(=O)O)c3)n2)CC1,IC50,[8],0.05 µM
same,IC50,[6],0.046 µM
COC(=O)/C=C/c1cccc(-c2cncc(N3CCCN(C)CC3)n2)c1,inhibition,[9],7%
same,inhibition,[10],14%
same,IC50,[6],> 8 µM
O=C(O)/C=C/c1cccc(-c2cnccn2)c1,IC50,[6],2.2 µM
NCCCCNc1cncc(-c2cccc(/C=C/C(=O)O)c2)n1,IC50,[11],0.022 µM
same,IC50,[8],0.033 µM
O=C(O)/C=C/c1cccc(-c2cncc(NCC3CCNCC3)n2)c1,IC50,[6],0.025 µM
CN1CCCN(c2cncc(-c3cccc(/C=C/C(N)=O)c3)n2)CC1,inhibition,[9],36%
same,inhibition,[10],42%
COCCCNc1cncc(-c2cccc(/C=C/C(=O)O)c2)n1,IC50,[11],0.48 µM
same,IC50,[8],0.37 µM
NCC1CCN(c2cncc(-c3cccc(/C=C/C(=O)O)c3)n2)CC1,IC50,[6],0.017 µM
